# Where a name gives a salt, the structure may show the parent alone.
# System: HCT116
# Test: efficacy (fitted maximal change in viability relative to DMSO control); higher = less cytotoxic (negative = loss of viability)
# Conditions: 48 h
# 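Also: Luminescence-based viability readout, five doses per compound, normalized against on-plate DMSO and empty-well controls, followed by dose-response curve fitting for every drug.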
row,Structure (SMILES),efficacy [%]
1,C=CCN(/C=C1\C(=O)O[C@@H](COC)[C@]2(C)C1=C(O)C(=O)C1=C2[C@@H](OC(C)=O)C[C@]2(C)C(=O)CC[C@H]12)CC=C [PX-866],-20.5
2,C[S+](=O)([O-])c1cc(F)cc2c3c(n(Cc4ccc(Cl)cc4)c12)[C@@H](CC(=O)O)CC3 [Laropiprant],-18.4
3,COc1ccc([S+](=O)([O-])NCc2ccc(C(=O)NCCc3ccc(Cl)cn3)cc2)cc1,-62.6
4,CNC(=O)[C@H](Cc1ccccc1)NC(=O)[C@H](CC(C)C)[C@H](CSc1cccs1)C(=O)NO [Batimastat],-46.2
5,O=C(Nc1ccccc1)Nc1ccc(-c2ccc(C(=O)[C@@H]3CCC[C@H]3C(=O)O)cc2)cc1,-8.51
6,CCOC(=O)[C@@H](N)Cc1ccc(-c2cc(O[C@H](c3ccc(Cl)cc3-n3ccc(C)n3)C(F)(F)F)nc(N)n2)cc1 [Telotristat Etiprate (LX 1606 Hippurate)],-95.9
7,N#Cc1ccnc(N2C(=O)CC[C@H]2C(=O)N(c2cncc(F)c2)C(C(=O)NC2CC(F)(F)C2)c2ccccc2Cl)c1 (some centres not stated) [AG-120],-22.2
8,CCOP(=O)(OCC)C(C)NC(=O)N(CCCl)N=O (configuration not stated) [Fotemustine],7.5
9,Cc1c(F)ccc(C(=O)Nc2cc([N+](=O)[O-])ccc2N2CCN(C)CC2)c1Cl [WDR5-C47],-7.44
10,OC1=CC=C(C=C1)\C2=C(O)\C(=O)C3=C(O2)C=C(O)C=C3O [Kaempferol],12.7
11,CC(=O)c1c(O)c(C)c(O)c(Cc2c(O)c3c(c(C(=O)/C=C/c4ccccc4)c2O)OC(C)(C)C=C3)c1O [Rottlerin],-8.89
12,CCC[C@H](NC(=O)[C@@H]1[C@H]2CCC[C@H]2CN1C(=O)[C@@H](NC(=O)[C@@H](NC(=O)c1cnccn1)C1CCCCC1)C(C)(C)C)C(=O)C(=O)NC1CC1 [Telaprevir (VX-950)],-39.3
13,NCCCC(N)(C(=O)O)C(F)F (configuration not stated) [Eflornithine Hydrochloride],19
14,NCC/1=C/NC(=S)N1[C@H]2CCC3=C(F)C=C(F)C=C3C2 [Nepicastat hydrochloride],-46.6
15,COc1cc([C@@H]2c3cc4c(cc3[C@H](O)[C@H]3COC(=O)[C@H]23)OCO4)cc(OC)c1OC [Podofilox],-62.3
16,CCCCOc1ccc(C(=O)Nc2ccc(F)cc2F)cc1,-14.8
17,C=C1C[C@@]2(O)O[C@@]3(C[C@H]2C(C)C)[C@@H](C)CC[C@@H]13 [Curcumol],-14.1
18,C[C@@H]1CN(CC(=O)N2CC(C)(C)c3ncc(Cc4ccc(F)cc4)cc32)[C@@H](CN2CCOC[C@H]2C)CN1 [AT-IAP],-62.8
19,CCC(=O)O[C@@]1([C@H](C)C[C@H]2[C@@H]3C[C@H](F)\C4=C\C(=O)\C=C/[C@]4(C)[C@@]3(F)[C@@H](O)C[C@]12C)C(=O)SCF [Fluticasone propionate],-11.6
20,CC1=CC=C(C=C1)\C2=N\C3=CC=C(Cl)C=C3OC2 [AR-7],-31.7
21,CN(CC1=CC2=C(N\C(=N/C2=O)C)C=C1)C3=CC=C(S3)C(=O)N[C@@H](CCC(O)=O)C(O)=O [Raltitrexed],-59
22,COc1cc2c(NC3CCN(C)CC3)nc(N3CCCN(C)CC3)nc2cc1OCCCN(C)C [UNC-0224],-57.9
23,CC/1=C2/N(C(=O)C(=C1)/NC3=CC(=NC=N3)N)C4(CCCCC4)NC2=O [eFT508],-7.54
24,C[C@H](NC(=O)Cc1cc(F)cc(F)c1)C(=O)N[C@@H]1C(=O)N(C)c2ccccc2-c2ccccc21,-23.7

row,Structure (SMILES),efficacy [%]
1,CCOC(=O)C(C)OC1=CC=CC2=C1\C=C/N(CC(=O)NC3=CC=C4OCCOC4=C3)C2=O (configuration not stated),-19.6
2,O=C(O)CCc1ccc(NCc2cccc(Oc3ccccc3)c2)cc1 [GW-9508],-8.05
3,Cc1nc2cc(C(=O)N3CCC4(CC3)CC(=O)c3c(cnn3C(C)C)C4)ccc2[nH]1,-35.5
4,CC(NCCc1ccc(O)cc1)C(O)c1ccc(O)cc1 (configuration not stated) [Ritodrine hydrochloride],-19.4
5,CN1N(C2=CC=CC=C2)C(=O)C(=C1/C3=CC=CC=C3)/C(=O)C4=CC=C(C)C(=C4N)C5=CC=C6N=C(C)C=CC6=C5 [AMG PERK 44],-31.8
6,O=C(O)c1cc(/N=N/c2ccc(S(=O)(=O)Nc3ccccn3)cc2)ccc1O [Sulfasalazine],8.3
7,COC1=CC=C(C=C1O)C/2=C/C(=O)C3=C(O2)C=C(O[C@@H]4O[C@H](CO[C@@H]5O[C@@H](C)[C@H](O)[C@@H](O)[C@H]5O)[C@@H](O)[C@H](O)[C@H]4O)C=C3O [Diosmin],-15.2
8,CO[C@@H]1COCC[C@@H]1N[C@@H]1CC[C@@](C(=O)N2CCc3ncc(C(F)(F)F)cc3C2)(C(C)C)C1 [MK-0812],-11.1
9,COc1ccc(C(=O)CC(=O)c2ccc(C(C)(C)C)cc2)cc1 [Avobenzone],-43.1
10,C[C@@H]1C[C@H]2[C@@H]3\C=C(C)/C4=C/C5=C(C[C@]4(C)[C@H]3[C@@H](O)C[C@]2(C)[C@@]1(O)C(=O)COC(C)=O)C=N[N]5C6=CC=CC=C6 [Cortivazol],-25.2
11,N[S+](=O)([O-])c1cc2c(cc1Cl)NCN[S+]2(=O)[O-] [Hydrochlorothiazide],7.16
12,CCC1(C)CC(=O)NC1=O (configuration not stated) [Ethosuximide],-10.2
13,CC(=O)O[C@H]1C(=O)[C@]2(C)[C@@H](O)C[C@H]3OC[C@@]3(OC(C)=O)C2[C@H](OC(=O)C4=CC=CC=C4)[C@]5(O)C[C@H](OC(=O)[C@H](O)[C@@H](NC(=O)C6=CC=CC=C6)C7=CC=CC=C7)\C(=C1/C5(C)C)C (some centres not stated) [Paclitaxel],-68.3
14,Cc1nnc(C(C)C)n1C1CC2CCC(C1)N2CC[C@H](NC(=O)C1CCC(F)(F)CC1)c1ccccc1 (some centres not stated) [Maraviroc],-6.73
15,Nc1ncc(C(=O)NC2CN(C(=O)C3CC3)C2)c2ccc(-c3cccc(F)c3)nc12 [GNE-495],-23.5
16,COc1cc[nH]c2ncc(C(=O)C(=O)N3CCN(C(=O)c4ccccc4)C[C@H]3C)c1-2,-10.7
17,CCC(CC)CC1(C(=O)Nc2ccccc2SC(=O)C(C)C)CCCCC1 [Dalcetrapib],-17.1
18,COc1ccc2[nH]c([S+]([O-])Cc3ncc(C)c(OC)c3C)nc2n1 (configuration not stated) [Tenatoprazole],-10.8
19,OCCN(CCO)c1nc(N2CCCCC2)c2nc(N(CCO)CCO)nc(N3CCCCC3)c2n1 [Dipyridamole],-30.3
20,C=CC(=O)N1CC(N2CCN(C(=O)CNc3cc(C4(C)CC4)c(Cl)cc3O)CC2)C1 [ARS-853],-63.4
21,FC1=CC=C(CN2\C=C/C=C(/C(=O)N[C@@H](COC3=CC4=C(NC(=O)N4)C=C3)C5=CC=CC=C5)C2=O)C=C1F [PDPK1 Inhibitor],-72.1
22,C[C@H](Nc1nc(N[C@H](C)C(F)(F)F)nc(-c2cccc(Cl)n2)n1)C(F)(F)F [AG-881],-28.1
23,CN(C)CCOC(c1ccccc1)c1ccccc1 [Diphenhydramine hydrochloride],-12.9
24,C[C@H]1CC[C@H](n2c3cnccc3c3cnc(Nc4ccc5c(n4)CCN(C(=O)CO)C5)nc32)CC1 [AMG-925 (FLX925)],-21.6

row,Structure (SMILES),efficacy [%]
1,CCOC(=O)[C@H](CCc1ccccc1)N[C@H]1CCc2ccccc2N(CC(=O)O)C1=O [Benazepril],-8.42
2,COc1cc2ncnc(Nc3cccc(Cl)c3F)c2cc1OC(=O)N1CCN(C)C[C@H]1C [AZD-3759],-38.2
3,COC(=O)[C@H](c1ccccc1Cl)N1CCc2sccc2C1 [Clopidogrel bisulfate],-22.3
4,Cc1n[nH]c2ncc(C(=O)N3CCC[C@H]3c3ccc(Cl)cc3)cc12,-17.4
5,CCOC(=O)[C@H]1O[C@@H]1C(=O)N[C@@H](CC(C)C)C(=O)NCCC(C)C [Aloxistatin],-5.94
6,Cc1ccc(C)c(OCCCC(C)(C)C(=O)O)c1 [Gemfibrozil],-13.1
7,O=C1N\N=C(\C[C@@H]2CCN(C2)C(=O)C3CC3)N1C4=CC=C(C=C4)C5=CC=C6OC=CC6=C5,-40.3
8,NC(=O)c1ccc(I)c([N+](=O)[O-])c1 [Iniparib],-14.6
9,C[C@H](c1ccc(F)cc1CCCC(=O)O)N(c1cc(F)ccc1F)[S+](=O)([O-])c1ccc(Cl)cc1,-30.3
10,NNCCc1ccccc1.O=S(=O)(O)O [Phenelzine],-40.1
11,CNC(=O)c1ccc2cc(C3(O)CCn4cncc43)ccc2c1 (configuration not stated) [Orteronel],-5.91
12,CCC(=O)N[C@H]1CC[C@H](C(=O)N(C)c2ccc(-c3nc4ccccc4o3)cc2)C1 [FASN BI],-31.4
13,CCOC(=O)c1ccnc(CNCC(=O)N(CC)CCN(C)C)c1 [KDM5-C70],11.1
14,Cc1cc(O)c2c(c1)C(=O)c1cccc(O)c1C2=O [Chrysophanol],-8.65
15,C[C@@H]1COCCN1C\2=C\C(=O)N\3CC[C@H](N(CC4=CN=CC(=C4)Cl)C3=N2)C(F)(F)F [SAR-405],-26.6
16,CC(N[C@H]1C[C@@H]1c1ccccc1)c1ccc2c(c1)OCCO2 (some centres not stated) [LSD1-C76],-23.9
17,CCCNC(=O)Nc1ccc(Oc2ncnc3cc(OC)c(OC)cc23)cc1Cl [KRN-633],-12.8
18,CC(C)(CNC(=O)c1cccc(-c2noc(C(F)(F)F)n2)c1)c1coc(-c2ccccc2)n1 [TMP-195],-21.4
19,OC[C@H]1O[C@H]([C@H](O)[C@@H]1O)N2\C=C/C(=O)NC2=O [Uridine],-9.88
20,Cc1cc2c(cc1CC(=O)c1sccc1[S+](=O)([O-])Nc1onc(C)c1Cl)OCO2 [Sitaxentan],-43.1
21,COc1ccc(/C=C/C(=O)Nc2ccccc2C(=O)O)cc1OC [Tranilast],-8.29
22,O=C1Cc2cc(C(=O)NC3C[C@H]4CC[C@@H](C3)N4[S+](=O)([O-])CC3CCN(CCCC(F)(F)F)CC3)c(Cl)cc2N1 (some centres not stated),-9.6
23,COC1=CC=C(C=C1)C/2=C(OC3O[C@@H](C)[C@H](O)[C@@H](O)[C@H]3O)/C(=O)C4=C(O2)C(=C(OC5O[C@H](CO)[C@@H](O)[C@H](O)[C@H]5O)C=C4O)CC=C(C)C (some centres not stated) [Icariin],-27.5
24,Cc1ccc(-c2ncc(Cl)cc2-c2ccc([S+](C)(=O)[O-])cc2)cn1 [Etoricoxib],-16.9

# Reference: the supplement of paper PMC10290057
